ChEMBL document CHEMBL4138123, “Design, synthesis and biological evaluation of novel pyrazolochalcones as potential modulators of PI3K/Akt/mTOR pathway and inducers of apoptosis in breast cancer cells” (Eur J Med Chem, 2017)

Columns and labels:
[1] = system: A498; test: Cytotoxicity against human A498 cells assessed as cell growth at 10 uM after 48 hrs by sulforhodamine B assay relative to control; assay type: functional; details: A498, 48 h, read-out: Activity
[2] = system: MDA-MB-231; test: Cytotoxicity against human MDA-MB-231 cells assessed as cell growth at 0.01 uM after 48 hrs by sulforhodamine B assay relative to control; assay type: functional; details: MDA-MB-231, 48 h, read-out: Activity
[3] = system: CCRF-CEM; test: Cytotoxicity against human CCRF-CEM cells assessed as cell growth at 0.01 uM after 48 hrs by sulforhodamine B assay relative to control; assay type: functional; details: read-out: Activity
[4] = system: MDA-MB-231; test: Cytotoxicity against human MDA-MB-231 cells assessed as growth inhibition after 48 hrs by MTT assay; assay type: functional, cell-based; details: MDA-MB-231, 48 h
[5] = system: TK-10; test: Cytotoxicity against human TK10 cells assessed as cell growth at 0.01 uM after 48 hrs by sulforhodamine B assay relative to control; assay type: functional; details: TK-10, 48 h, read-out: Activity
[6] = system: SR; test: Cytotoxicity against human SR cells assessed as growth inhibition after 48 hrs by sulforhodamine B assay; assay type: functional; details: for CC50: read-out: LC50 (the source's name)
[7] = system: SK-MEL-28; test: Cytotoxicity against human SK-MEL-28 cells assessed as cell growth at 1 uM after 48 hrs by sulforhodamine B assay relative to control; assay type: functional; details: SK-MEL-28, 48 h, read-out: Activity
[8] = system: RXF 393; test: Cytotoxicity against human RXF393 cells assessed as cell growth at 100 uM after 48 hrs by sulforhodamine B assay relative to control; assay type: functional; details: RXF 393, 48 h, read-out: Activity
[9] = system: OVCAR-4; test: Cytotoxicity against human OVCAR4 cells assessed as cell growth at 10 uM after 48 hrs by sulforhodamine B assay relative to control; assay type: functional; details: OVCAR-4, 48 h, read-out: Activity
[10] = system: HT-29; test: Cytotoxicity against human HT-29 cells assessed as cell growth at 10 uM after 48 hrs by sulforhodamine B assay relative to control; assay type: functional; details: HT-29, 48 h, read-out: Activity
[11] = system: SK-MEL-28; test: Cytotoxicity against human SK-MEL-28 cells assessed as cell growth at 0.01 uM after 48 hrs by sulforhodamine B assay relative to control; assay type: functional; details: SK-MEL-28, 48 h, read-out: Activity
[12] = system: HL-60(TB); test: Cytotoxicity against human HL-60(TB) cells assessed as cell growth at 1 uM after 48 hrs by sulforhodamine B assay relative to control; assay type: functional; details: HL-60, 48 h, read-out: Activity
[13] = system: Hs-578T; test: Cytotoxicity against human Hs 578T cells assessed as cell growth at 0.01 uM after 48 hrs by sulforhodamine B assay relative to control; assay type: functional; details: read-out: Activity
[14] = system: SN12C; test: Cytotoxicity against human SN12C cells assessed as cell growth at 0.1 uM after 48 hrs by sulforhodamine B assay relative to control; assay type: functional; details: read-out: Activity
[15] = system: U-251; test: Cytotoxicity against human U251 cells assessed as cell growth at 1 uM after 48 hrs by sulforhodamine B assay relative to control; assay type: functional; details: U-251, 48 h, read-out: Activity
[16] = system: U-251; test: Cytotoxicity against human U251 cells assessed as cell growth at 10 uM after 48 hrs by sulforhodamine B assay relative to control; assay type: functional; details: U-251, 48 h, read-out: Activity
[17] = system: BT-549; test: Cytotoxicity against human BT549 cells assessed as cell growth at 100 uM after 48 hrs by sulforhodamine B assay relative to control; assay type: functional; details: BT-549, 48 h, read-out: Activity
[18] = system: TK-10; test: Cytotoxicity against human TK10 cells assessed as cell growth at 0.1 uM after 48 hrs by sulforhodamine B assay relative to control; assay type: functional; details: TK-10, 48 h, read-out: Activity
[19] = system: UO-31; test: Cytotoxicity against human UO31 cells assessed as growth inhibition after 48 hrs by sulforhodamine B assay; assay type: functional; details: UO-31, 48 h
[20] = system: SK-MEL-28; test: Cytotoxicity against human SK-MEL-28 cells assessed as cell growth at 0.1 uM after 48 hrs by sulforhodamine B assay relative to control; assay type: functional; details: SK-MEL-28, 48 h, read-out: Activity
[21] = system: M14; test: Cytotoxicity against human M14 cells assessed as cell growth at 100 uM after 48 hrs by sulforhodamine B assay relative to control; assay type: functional; details: M14, 48 h, read-out: Activity
[22] = system: Malme-3M; test: Cytotoxicity against human MALME-3M cells assessed as growth inhibition after 48 hrs by sulforhodamine B assay; assay type: functional
[23] = system: NCI-H322M; test: Cytotoxicity against human NCI-H322M cells assessed as growth inhibition after 48 hrs by sulforhodamine B assay; assay type: functional; details: for CC50: read-out: LC50 (the source's name)
[24] = system: RXF 393; test: Cytotoxicity against human RXF393 cells assessed as cell growth at 0.1 uM after 48 hrs by sulforhodamine B assay relative to control; assay type: functional; details: RXF 393, 48 h, read-out: Activity
[25] = system: CCRF-CEM; test: Cytotoxicity against human CCRF-CEM cells assessed as cell growth at 1 uM after 48 hrs by sulforhodamine B assay relative to control; assay type: functional; details: read-out: Activity
[26] = system: MDA-MB-468; test: Cytotoxicity against human MDA-MB-468 cells assessed as cell growth at 0.01 uM after 48 hrs by sulforhodamine B assay relative to control; assay type: functional; details: MDA-MB-468, 48 h, read-out: Activity
[27] = system: SN12C; test: Cytotoxicity against human SN12C cells assessed as cell growth at 10 uM after 48 hrs by sulforhodamine B assay relative to control; assay type: functional; details: read-out: Activity
[28] = system: BT-549; test: Cytotoxicity against human BT549 cells assessed as cell growth at 0.01 uM after 48 hrs by sulforhodamine B assay relative to control; assay type: functional; details: BT-549, 48 h, read-out: Activity
[29] = system: MDA-MB-435; test: Cytotoxicity against human MDA-MB-435 cells assessed as cell growth at 1 uM after 48 hrs by sulforhodamine B assay relative to control; assay type: functional; details: MDA-MB-435, 48 h, read-out: Activity
[30] = system: MOLT-4; test: Cytotoxicity against human MOLT4 cells assessed as cell growth at 1 uM after 48 hrs by sulforhodamine B assay relative to control; assay type: functional; details: MOLT-4, 48 h, read-out: Activity
[31] = system: SNB-19; test: Cytotoxicity against human SNB19 cells assessed as cell growth at 10 uM after 48 hrs by sulforhodamine B assay relative to control; assay type: functional; details: SNB-19, 48 h, read-out: Activity
[32] = system: A549; test: Cytotoxicity against human A549/ATCC cells assessed as cell growth at 0.1 uM after 48 hrs by sulforhodamine B assay relative to control; assay type: functional; details: A549, 48 h, read-out: Activity
[33] = system: K562; test: Cytotoxicity against human K562 cells assessed as cell growth at 1 uM after 48 hrs by sulforhodamine B assay relative to control; assay type: functional; details: K562, 48 h, read-out: Activity
[34] = system: TK-10; test: Cytotoxicity against human TK10 cells assessed as cell growth at 10 uM after 48 hrs by sulforhodamine B assay relative to control; assay type: functional; details: TK-10, 48 h, read-out: Activity
[35] = system: SR; test: Cytotoxicity against human SR cells assessed as cell growth at 0.01 uM after 48 hrs by sulforhodamine B assay relative to control; assay type: functional; details: read-out: Activity
[36] = system: U-251; test: Cytotoxicity against human U251 cells assessed as cell growth at 0.01 uM after 48 hrs by sulforhodamine B assay relative to control; assay type: functional; details: U-251, 48 h, read-out: Activity
[37] = system: UACC-257; test: Cytotoxicity against human UACC257 cells assessed as growth inhibition after 48 hrs by sulforhodamine B assay; assay type: functional; details: UACC-257, 48 h

With `COc1cc2c(cc1OC)C(=O)/C(=C/c1cc(-c3ccc4c(c3)OCO4)n[nH]1)C2` the growth at 10 µM [1] was -84%, the growth at 0.01 µM [2] was 106% and the growth at 0.01 µM [3] was 97%. It also gave an IC50 [4] of 1.6 µM, a growth at 0.01 µM [5] of 88% and a GI50 [6] of 0.62 µM. It also gave a TGI [6] of 4.11 µM, a CC50 [6] greater than 100 µM and a growth at 1 µM [7] of 105%. For the same molecule, the growth at 100 µM [8] was -92%, the growth at 10 µM [9] was -96% and the growth at 10 µM [10] was -77%. It also gave a growth at 0.01 µM [11] of 104%, a growth at 1 µM [12] of 86% and a growth at 0.01 µM [13] of 95%. The growth at 0.1 µM [14] was 93%, the growth at 1 µM [15] was 56% and the growth at 10 µM [16] was -97%. It also gave a growth at 100 µM [17] of -87%, a growth at 0.1 µM [18] of 88% and a GI50 [19] of 1.29 µM. For the same molecule, the LC50 [19] was 5.51 µM, the TGI [19] was 2.67 µM and the growth at 0.1 µM [20] was 101%. It also gave a growth at 100 µM [21] of -80%, a GI50 [22] of 1.74 µM and an LC50 [22] of 7.43 µM. For the same molecule, the TGI [22] was 3.6 µM, the GI50 [23] was 1.54 µM and the TGI [23] was 3.01 µM. For the same molecule, the CC50 [23] was 5.87 µM, the growth at 0.1 µM [24] was 82% and the growth at 1 µM [25] was 55%. For the same molecule, the growth at 0.01 µM [26] was 93%, the growth at 10 µM [27] was -96% and the growth at 0.01 µM [28] was 96%. For the same molecule, the growth at 1 µM [29] was 93%, the growth at 1 µM [30] was 97% and the growth at 10 µM [31] was -95%. The growth at 0.1 µM [32] was 99%, the growth at 1 µM [33] was 62% and the growth at 10 µM [34] was -95%. The growth at 0.01 µM [35] was 97%, the growth at 0.01 µM [36] was 97% and the GI50 [37] was 1.71 µM. It also gave an LC50 [37] of 5.72 µM and a TGI [37] of 3.13 µM.

Work on `COc1ccc(C(=O)/C=C/c2cc(-c3cc(OC)c(OC)c(OC)c3)n[nH]2)cc1OC` yielded a growth at 10 µM [1] of -87%, a growth at 0.01 µM [2] of 104% and a growth at 0.01 µM [3] of 95%. It also gave an IC50 [4] of 0.62 µM, a growth at 0.01 µM [5] of 85% and a TGI [6] greater than 100 µM. The CC50 [6] was greater than 100 µM, the growth at 1 µM [7] was 96% and the growth at 100 µM [8] was -98%. The growth at 10 µM [9] was 23%, the growth at 10 µM [10] was -94% and the growth at 0.01 µM [11] was 97%. It also gave a growth at 1 µM [12] of 67%, a growth at 0.01 µM [13] of 98% and a growth at 0.1 µM [14] of 94%. It also gave a growth at 1 µM [15] of 65%, a growth at 10 µM [16] of -100% and a growth at 100 µM [17] of -75%. It also gave a growth at 0.1 µM [18] of 90%, an LC50 [19] of 5.17 µM and a TGI [19] of 2.57 µM. It also gave a growth at 0.1 µM [20] of 104%, a growth at 100 µM [21] of -68% and an LC50 [22] of 6.79 µM. The TGI [22] was 3.68 µM, the TGI [23] was 2.9 µM and the CC50 [23] was 5.51 µM. It also gave a growth at 0.1 µM [24] of 100%, a growth at 1 µM [25] of 39% and a growth at 0.01 µM [26] of 89%. For the same molecule, the growth at 10 µM [27] was -82%, the growth at 0.01 µM [28] was 95% and the growth at 1 µM [29] was 70%. It also gave a growth at 1 µM [30] of 88%, a growth at 10 µM [31] of -80% and a growth at 0.1 µM [32] of 98%. The growth at 1 µM [33] was 75%, the growth at 10 µM [34] was 100% and the growth at 0.01 µM [35] was 100%. The growth at 0.01 µM [36] was 96%, the LC50 [37] was 5.37 µM and the TGI [37] was 2.83 µM.
